Assay results reported in patent US20090082425A1 (priority 2007, published 2009).

Test system: DU-145
Assay type: cell-based, human

CC(=O)O[C@H]1C(=O)[C@@]2(C)[C@H]([C@H](OC(=O)c3ccccc3)[C@]3(O)C[C@H](OC(=O)[C@H](O)[C@@H](NC(=O)c4ccccc4)c4ccccc4)C(C)=C1C3(C)C)[C@]1(OC(C)=O)CO[C@@H]1C[C@@H]2O [Taxol]
Cell survival rate (%): 63.88%
